In patent US9695155B2, “Herbicidal substituted pyrimidinyloxy benzene compounds” (E. I. DU PONT DE NEMOURS AND COMPANY, priority 2013, dated 2017):

Experiments:
[1] = test system: dayflower; experiment: Test E preemergence; type: in vivo, Commelina virginica; conditions: for Dayflower, VA plant response rating: scale 0 to 100 (0 no effect, 100 complete control); for Plant response rating, Dayflower, VA: 125 g ai/ha, scale 0 to 100, 0 no effect, 100 complete control
Method in brief: (§1)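 Response was scored visually on a 0-100 scale (100 = complete control) versus controls after 14 to 21 days in the greenhouse. Test chemicals, formulated with surfactant in a non-phytotoxic solvent mixture, had been applied preemergence to seeds in silt loam soil or postemergence to 1- to 4-leaf plants in potting medium.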

[2] = test system: green foxtail; experiment: Test E preemergence; type: in vivo, Setaria viridis; conditions: for Foxtail, Green plant response rating: scale 0 to 100 (0 no effect, 100 complete control); for Plant response rating, Foxtail, Green: 125 g ai/ha, scale 0 to 100, 0 no effect, 100 complete control
Method in brief: as §1

[3] = test system: arrowleaf sida; experiment: Test E preemergence; type: in vivo, Sida rhombifolia; conditions: for Arrowleaf Sida plant response rating: scale 0 to 100 (0 no effect, 100 complete control); for Plant response rating, Arrowleaf Sida: scale 0 to 100, 0 no effect, 100 complete control
Method in brief: as §1

[4] = test system: surinam grass; experiment: Test E preemergence; type: in vivo, Brachiaria decumbens; conditions: for Surinam Grass plant response rating: scale 0 to 100 (0 no effect, 100 complete control); for Plant response rating, Surinam Grass: 125 g ai/ha, scale 0 to 100, 0 no effect, 100 complete control
Method in brief: as §1

[5] = test system: sandbur; experiment: Test E preemergence; type: in vivo, Cenchrus echinatus; conditions: for Sandbur plant response rating: scale 0 to 100 (0 no effect, 100 complete control); for Plant response rating, Sandbur: 125 g ai/ha, scale 0 to 100, 0 no effect, 100 complete control
Method in brief: as §1

[6] = test system: Italian ryegrass; experiment: Test E preemergence; type: in vivo, Lolium multiflorum; conditions: for Ryegrass, Italian plant response rating: scale 0 to 100 (0 no effect, 100 complete control); for Plant response rating, Ryegrass, Italian: 125 g ai/ha, scale 0 to 100, 0 no effect, 100 complete control
Method in brief: as §1

[7] = test system: goosegrass; experiment: Test E preemergence; type: in vivo, Eleusine indica; conditions: for Goosegrass plant response rating: scale 0 to 100 (0 no effect, 100 complete control); for Plant response rating, Goosegrass: 125 g ai/ha, scale 0 to 100, 0 no effect, 100 complete control
Method in brief: as §1

[8] = test system: yellow nutsedge; experiment: Test E preemergence; type: in vivo, Cyperus esculentus; conditions: for Nutsedge, Yellow plant response rating: scale 0 to 100 (0 no effect, 100 complete control); for Plant response rating, Nutsedge, Yellow: 125 g ai/ha, scale 0 to 100, 0 no effect, 100 complete control
Method in brief: as §1

[9] = test system: ragweed; experiment: Test A preemergence; type: in vivo, Ambrosia elatior
Method in brief: (§2)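 Visual injury scored 0–100 (100 = complete control) against untreated controls about 10 days after treatment in a greenhouse. Test chemicals, formulated with surfactant in non-phytotoxic solvent, were sprayed on soil preemergence or on 2-10 cm, one- to two-leaf plants postemergence.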

[10] = test system: Italian ryegrass; experiment: Test A postemergence; type: in vivo, Lolium multiflorum
Method in brief: as §2

[11] = test system: wild poinsettia; experiment: Test E preemergence; type: in vivo, Euphorbia heterophylla; conditions: for Poinsettia, Wild plant response rating: scale 0 to 100 (0 no effect, 100 complete control); for Plant response rating, Poinsettia, Wild: 125 g ai/ha, scale 0 to 100, 0 no effect, 100 complete control
Method in brief: as §1

[12] = test system: lambsquarters; experiment: Test E preemergence; type: in vivo, Chenopodium album; conditions: for Lambsquarters plant response rating: scale 0 to 100 (0 no effect, 100 complete control); for Plant response rating, Lambsquarters: 125 g ai/ha, scale 0 to 100, 0 no effect, 100 complete control
Method in brief: as §1

[13] = test system: hairy beggarticks; experiment: Test E preemergence; type: in vivo, Bidens pilosa; conditions: for Beggarticks plant response rating: scale 0 to 100 (0 no effect, 100 complete control); for Plant response rating, Beggarticks: scale 0 to 100, 0 no effect, 100 complete control
Method in brief: as §1

[14] = test system: kochia; experiment: Test A postemergence; type: in vivo, Kochia scoparia
Method in brief: as §2

[15] = 125 g ai/ha, 0 to 100 scale where 0 is no effect and 100 is complete control
[16] = 500 g ai/ha, 0 to 100 scale where 0 is no effect and 100 is complete control
[17] = 31 g ai/ha, 0 to 100 scale, 0 no effect, 100 complete control
[18] = 125 g ai/ha, 0 to 100 scale, 0 no effect, 100 complete control

SMILES: N#Cc1cccc(Oc2ncc(F)cn2)c1-n1cc(I)cn1 [Compound 86]
- Dayflower, VA plant response rating ([1]; 16 g ai/ha): 0
- Dayflower, VA plant response rating ([1]; 31 g ai/ha): 0
- Dayflower, VA plant response rating ([1]; 62 g ai/ha): 30
- Plant response rating, Dayflower, VA [1]: 65
- Foxtail, Green plant response rating ([2]; 16 g ai/ha): 0
- Foxtail, Green plant response rating ([2]; 31 g ai/ha): 0
- Foxtail, Green plant response rating ([2]; 62 g ai/ha): 15
- Plant response rating, Foxtail, Green [2]: 75
- Arrowleaf Sida plant response rating ([3]; 16 g ai/ha, preemergence): 0
- Arrowleaf Sida plant response rating ([3]; 31 g ai/ha, preemergence): 5
- Plant response rating, Arrowleaf Sida ([3]; Preemergence, 62 g ai/ha): 60
- Plant response rating, Arrowleaf Sida ([3]; preemergence, 125 g ai/ha): 100
- Surinam Grass plant response rating ([4]; 16 g ai/ha): 0
- Surinam Grass plant response rating ([4]; 31 g ai/ha): 0
- Surinam Grass plant response rating ([4]; 62 g ai/ha): 0
- Plant response rating, Surinam Grass [4]: 0
- Sandbur plant response rating ([5]; 16 g ai/ha): 0
- Sandbur plant response rating ([5]; 31 g ai/ha): 10
- Sandbur plant response rating ([5]; 62 g ai/ha): 10
- Plant response rating, Sandbur [5]: 10
- Ryegrass, Italian plant response rating ([6]; 16 g ai/ha): 0
- Ryegrass, Italian plant response rating ([6]; 31 g ai/ha): 0
- Ryegrass, Italian plant response rating ([6]; 62 g ai/ha): 0
- Plant response rating, Ryegrass, Italian [6]: 5
- Goosegrass plant response rating ([7]; 16 g ai/ha): 0
- Goosegrass plant response rating ([7]; 31 g ai/ha): 0
- Goosegrass plant response rating ([7]; 62 g ai/ha): 50
- Plant response rating, Goosegrass [7]: 50
- Nutsedge, Yellow plant response rating ([8]; 16 g ai/ha): 0
- Nutsedge, Yellow plant response rating ([8]; 31 g ai/ha): 0
- Nutsedge, Yellow plant response rating ([8]; 62 g ai/ha): 0
- Plant response rating, Nutsedge, Yellow [8]: 20
- Plant response rating, Ragweed [9, 15]: 90
- Ragweed plant response rating ([9]; 500 g ai/ha, 0 to 100 scale, 0 no effect, 100 complete control, approx. 10 days): 100
- Plant response rating, Ryegrass, Italian [10, 15]: 80
- Plant response rating, Ryegrass, Italian [10, 16]: 100
- Poinsettia, Wild plant response rating ([11]; 16 g ai/ha): 0
- Poinsettia, Wild plant response rating ([11]; 31 g ai/ha): 10
- Poinsettia, Wild plant response rating ([11]; 62 g ai/ha): 20
- Plant response rating, Poinsettia, Wild [11]: 65
- Lambsquarters plant response rating ([12]; 16 g ai/ha): 0
- Lambsquarters plant response rating ([12]; 31 g ai/ha): 65
- Lambsquarters plant response rating ([12]; 62 g ai/ha): 100
- Plant response rating, Lambsquarters [12]: 100
- Beggarticks plant response rating ([13]; 16 g ai/ha, preemergence): 0
- Beggarticks plant response rating ([13]; 31 g ai/ha, preemergence): 0
- Plant response rating, Beggarticks ([13]; Preemergence, 62 g ai/ha): 35
- Plant response rating, Beggarticks ([13]; preemergence, 125 g ai/ha): 70
- Plant response rating, Kochia [14, 15]: 100
- Plant response rating, Kochia [14, 16]: 100

SMILES: N#Cc1cnn(-c2c(C#N)cccc2Oc2ncc(F)cn2)c1 [Compound 111]
- Dayflower, VA plant response rating ([1]; 16 g ai/ha): 0
- Dayflower, VA plant response rating ([1]; 31 g ai/ha): 0
- Dayflower, VA plant response rating ([1]; 62 g ai/ha): 20
- Plant response rating, Dayflower, VA [1]: 20
- Foxtail, Green plant response rating ([2]; 16 g ai/ha): 0
- Foxtail, Green plant response rating ([2]; 31 g ai/ha): 10
- Foxtail, Green plant response rating ([2]; 62 g ai/ha): 70
- Plant response rating, Foxtail, Green [2]: 90
- Arrowleaf Sida plant response rating ([3]; 16 g ai/ha, preemergence): 40
- Arrowleaf Sida plant response rating ([3]; 31 g ai/ha, preemergence): 50
- Plant response rating, Arrowleaf Sida ([3]; Preemergence, 62 g ai/ha): 70
- Plant response rating, Arrowleaf Sida ([3]; preemergence, 125 g ai/ha): 98
- Surinam Grass plant response rating ([4]; 16 g ai/ha): 0
- Surinam Grass plant response rating ([4]; 31 g ai/ha): 0
- Surinam Grass plant response rating ([4]; 62 g ai/ha): 0
- Plant response rating, Surinam Grass [4]: 25
- Sandbur plant response rating ([5]; 16 g ai/ha): 0
- Sandbur plant response rating ([5]; 31 g ai/ha): 0
- Sandbur plant response rating ([5]; 62 g ai/ha): 0
- Plant response rating, Sandbur [5]: 0
- Ryegrass, Italian plant response rating ([6]; 16 g ai/ha): 0
- Ryegrass, Italian plant response rating ([6]; 31 g ai/ha): 0
- Ryegrass, Italian plant response rating ([6]; 62 g ai/ha): 0
- Plant response rating, Ryegrass, Italian [6]: 20
- Goosegrass plant response rating ([7]; 16 g ai/ha): 0
- Goosegrass plant response rating ([7]; 31 g ai/ha): 5
- Goosegrass plant response rating ([7]; 62 g ai/ha): 40
- Plant response rating, Goosegrass [7]: 65
- Nutsedge, Yellow plant response rating ([8]; 16 g ai/ha): 0
- Nutsedge, Yellow plant response rating ([8]; 31 g ai/ha): 0
- Nutsedge, Yellow plant response rating ([8]; 62 g ai/ha): 0
- Plant response rating, Nutsedge, Yellow [8]: 15
- Poinsettia, Wild plant response rating ([11]; 16 g ai/ha): 15
- Poinsettia, Wild plant response rating ([11]; 31 g ai/ha): 30
- Poinsettia, Wild plant response rating ([11]; 62 g ai/ha): 70
- Plant response rating, Poinsettia, Wild [11]: 85
- Lambsquarters plant response rating ([12]; 16 g ai/ha): 50
- Lambsquarters plant response rating ([12]; 31 g ai/ha): 80
- Lambsquarters plant response rating ([12]; 62 g ai/ha): 98
- Plant response rating, Lambsquarters [12]: 100
- Beggarticks plant response rating ([13]; 16 g ai/ha, preemergence): 20
- Beggarticks plant response rating ([13]; 31 g ai/ha, preemergence): 30
- Plant response rating, Beggarticks ([13]; Preemergence, 62 g ai/ha): 60
- Plant response rating, Beggarticks ([13]; preemergence, 125 g ai/ha): 80

SMILES: FCc1cccc(Oc2ncc(Cl)cn2)c1-n1cc(Cl)cn1 [Compound 250]
- Dayflower, VA plant response rating ([1]; 16 g ai/ha): 0
- Dayflower, VA plant response rating ([1]; 31 g ai/ha): 0
- Dayflower, VA plant response rating ([1]; 62 g ai/ha): 50
- Plant response rating, Dayflower, VA [1]: 70
- Foxtail, Green plant response rating ([2]; 16 g ai/ha): 0
- Foxtail, Green plant response rating ([2]; 31 g ai/ha): 0
- Foxtail, Green plant response rating ([2]; 62 g ai/ha): 0
- Plant response rating, Foxtail, Green [2]: 90
- Arrowleaf Sida plant response rating ([3]; 16 g ai/ha, preemergence): 0
- Arrowleaf Sida plant response rating ([3]; 31 g ai/ha, preemergence): 20
- Arrowleaf Sida plant response rating ([3]; 62 g ai/ha, preemergence): 60
- Plant response rating, Arrowleaf Sida ([3]; preemergence, 125 g ai/ha): 100
- Surinam Grass plant response rating ([4]; 31 g ai/ha): 0
- Surinam Grass plant response rating ([4]; 62 g ai/ha): 0
- Plant response rating, Surinam Grass [4]: 0
- Sandbur plant response rating ([5]; 31 g ai/ha): 0
- Sandbur plant response rating ([5]; 62 g ai/ha): 0
- Plant response rating, Sandbur [5]: 25
- Ryegrass, Italian plant response rating ([6]; 31 g ai/ha): 0
- Ryegrass, Italian plant response rating ([6]; 62 g ai/ha): 0
- Plant response rating, Ryegrass, Italian [6]: 0
- Goosegrass plant response rating ([7]; 31 g ai/ha): 0
- Goosegrass plant response rating ([7]; 62 g ai/ha): 0
- Plant response rating, Goosegrass [7]: 65
- Nutsedge, Yellow plant response rating ([8]; 31 g ai/ha): 0
- Nutsedge, Yellow plant response rating ([8]; 62 g ai/ha): 0
- Plant response rating, Nutsedge, Yellow [8]: 40
- Plant response rating, Ryegrass, Italian [10, 17]: 0
- Plant response rating, Ryegrass, Italian [10, 18]: 0
- Poinsettia, Wild plant response rating ([11]; 31 g ai/ha): 0
- Poinsettia, Wild plant response rating ([11]; 62 g ai/ha): 0
- Plant response rating, Poinsettia, Wild [11]: 20
- Lambsquarters plant response rating ([12]; 31 g ai/ha): 0
- Lambsquarters plant response rating ([12]; 62 g ai/ha): 0
- Plant response rating, Lambsquarters [12]: 100
- Beggarticks plant response rating ([13]; 16 g ai/ha, preemergence): 0
- Beggarticks plant response rating ([13]; 31 g ai/ha, preemergence): 0
- Beggarticks plant response rating ([13]; 62 g ai/ha, preemergence): 0
- Plant response rating, Beggarticks ([13]; preemergence, 125 g ai/ha): 20
- Plant response rating, Kochia [14, 17]: 60
- Plant response rating, Kochia [14, 18]: 90
